In DBAASP one finds MIC data, which are given here for 13 molecules.

Converted amounts (≈) assume the structure as drawn.

What all share (assay): ≥ marks a high value that may be exact or a test limit, other limits are often not marked, values filed in µg/mL are converted to µM
For experiment [1], the system named is Bacillus subtilis ATCC 23857.
For experiment [2], the system named is Escherichia coli ATCC 25922.
Experiment [3] concerns Candida albicans ATCC 90028.
Experiment [4] deals with Staphylococcus aureus NCTC 8325.
Experiment [5] concerns Staphylococcus aureus USA 300.
Experiment [6] relates to Bacillus subtilis 168.
The test system of experiment [7] is Micrococcus luteus.
In experiment [8] the test system is Staphylococcus aureus.
Experiment [9] has as its system Klebsiella pneumoniae ATCC 13883.
Experiment [10] has as its system Pseudomonas aeruginosa PAO1.
The subject of experiment [11] is Staphylococcus aureus NCTC 10788.

Broadly, the MIC is the least concentration at which growth counts as inhibited. High values mean weaker potency, low ones greater potency. As for `CC[C@H](C)[C@H](NC(=O)CNC(=O)[C@H](C)NC(=O)[C@@H](NC(=O)[C@@H](NC(=O)CN)[C@@H](C)CC)[C@@H](C)CC)C(=O)N[C@@H](C)C(=O)N[C@H](C(=O)N[C@@H](CCCCN)C(=O)N[C@H](C(=O)N[C@@H](CCCCN)C(=O)N[C@@H](CCCCN)C(N)=O)[C@@H](C)CC)[C@@H](C)CC` [GIIAGIAIKIKK], the MIC in experiment [1] was no less than 32 µM; in experiment [2], 64 µM (≈ 78.3 µg/mL).
Consider `CC[C@H](C)[C@H](NC(=O)CN)C(=O)N[C@@H](Cc1ccccc1)C(=O)N[C@@H](CC(N)=O)C(=O)N[C@H](C(=O)N[C@@H](Cc1ccccc1)C(=O)N[C@@H](CCCCN)C(=O)NCC(=O)N[C@@H](C)C(=O)N[C@@H](CC(C)C)C(=O)N[C@@H](CCCCN)C(=O)N[C@H](C(=O)N[C@@H](C)C(=O)NCC(=O)N[C@@H](CCCCN)C(=O)N[C@@H](Cc1cnc[nH]1)C(=O)N[C@H](C(=O)N[C@@H](C)C(=O)NCC(=O)N[C@@H](CO)C(=O)N[C@@H](CC(C)C)C(=O)N[C@@H](CC(C)C)C(=O)N[C@@H](CC(N)=O)C(=O)N[C@@H](CCC(N)=O)C(=O)N[C@@H](CC(C)C)C(=O)N[C@@H](CCCCN)C(=O)N[C@H]1CSSC[C@@H](C(=O)O)NC(=O)[C@H](CCC(=O)O)NC(=O)CNC(=O)[C@H](CO)NC(=O)[C@H](C(C)C)NC(=O)[C@H](CCCCN)NC1=O)C(C)C)[C@@H](C)O)C(C)C` [GIFNVFKGALKTAGKHVAGSLLNQLKCKVSGEC], for which the minimal inhibitory concentration (MIC) in experiment [3] was no less than 40 µM; in [2] it was 4 µM (≈ 13.7 µg/mL); in experiment [4] it was 9 µM (≈ 30.8 µg/mL).
Turning to `CC[C@H](C)[C@H](NC(=O)[C@H](C)NC(=O)[C@H](CCCCN)NC(=O)[C@H](C)N)C(=O)N[C@H](C(=O)N[C@@H](CCCN=C(N)N)C(=O)N[C@H](C(=O)N[C@H](C(=O)N[C@@H](CCC(=O)O)C(=O)N[C@@H](CCC(N)=O)C(=O)N[C@@H](C)C(=O)N1CCC[C@H]1C(=O)N[C@@H](CCCCN)C(=O)N[C@H](C(=O)N[C@@H](C)C(=O)N[C@@H](CCCCN)C(=O)N[C@@H](C)C(=O)N[C@@H](CCCCN)C(=O)N[C@@H](CCCCN)C(=O)N[C@@H](CO)C(=O)O)[C@@H](C)O)[C@@H](C)CC)[C@@H](C)O)C(C)C` [AKAIVRTIEQAPKTAKAKKS], in experiment [5], the MIC is no less than 128 µM.
With `CC(C)C[C@H](NC(=O)[C@H](CC(=O)O)NC(=O)[C@H](CC(N)=O)NC(=O)[C@H](C)NC(=O)[C@H](CC(N)=O)NC(=O)[C@H](CC(=O)O)NC(=O)[C@@H](N)C(C)C)C(=O)N[C@@H](CC(C)C)C(=O)N[C@@H](CO)C(=O)N[C@@H](CCCCN)C(=O)N[C@H](C(=O)N[C@@H](CCCCN)C(=O)N[C@@H](CCCCN)C(=O)N[C@@H](CC(=O)O)C(=O)N[C@@H](CCCCN)C(=O)N[C@@H](CO)C(=O)N[C@@H](CC(=O)O)C(=O)O)C(C)C` [VDNANDLLSKVKKDKSD], the MIC was determined as 1.11 µM (≈ 2.1 µg/mL) in experiment [6], 4.39 µM (≈ 8.3 µg/mL) in experiment [2], 4.39 µM (≈ 8.3 µg/mL) in [7] and 8.26 µM (≈ 15.6 µg/mL) in [8].
As for `CC(C)C[C@H](NC(=O)[C@H](CC(C)C)NC(=O)[C@H](CCCCN)NC(=O)CNC(=O)[C@H](CC(C)C)NC(=O)[C@H](CC(C)C)NC(=O)[C@H](CO)NC(=O)[C@H](CC(C)C)NC(=O)[C@H](CC(C)C)NC(=O)[C@H](CC(C)C)NC(=O)[C@H](CO)NC(=O)[C@H](CC(C)C)NC(=O)CN)C(N)=O` [GLSLLLSLLGKLL], the MIC in [2] is greater than 25 µM; in [9], 25 µM (≈ 33.5 µg/mL); in experiment [10] it was greater than 25 µM; in experiment [5], 1.6 µM (≈ 2.14 µg/mL).
Regarding `CC[C@H](C)[C@H](NC(=O)[C@H](CCSC)NC(=O)[C@H](CO)NC(=O)CNC(=O)[C@H](Cc1ccccc1)NC(=O)[C@@H](N)Cc1ccccc1)C(=O)NCC(=O)N[C@@H](C)C(=O)N[C@@H](CC(C)C)C(=O)N[C@@H](C)C(=O)N[C@@H](CCCCN)C(=O)NCC(=O)N[C@@H](CC(C)C)C(=O)N1CCC[C@H]1C(=O)N[C@@H](CO)C(=O)N[C@@H](CC(C)C)C(=O)N[C@H](C(=O)N[C@@H](CO)C(=O)N[C@@H](CC(C)C)C(=O)N[C@H](C(=O)N[C@@H](CCCCN)C(=O)N[C@@H](CCCCN)C(N)=O)[C@@H](C)CC)[C@@H](C)CC` [FFGSMIGALAKGLPSLISLIKK], the minimal inhibitory concentration (MIC) in [2] and in experiment [4] was 12.5 µM (≈ 28.6 µg/mL) each time.
For `CC[C@H](C)[C@H](NC(=O)CNC(=O)[C@H](CC(C)C)NC(=O)[C@H](CO)NC(=O)[C@H](CCC(=O)O)NC(=O)[C@H](CCSC)NC(=O)[C@H](CCCCN)NC(=O)[C@H](C)NC(=O)[C@H](CCCCN)NC(=O)[C@H](CC(=O)O)NC(=O)[C@@H](NC(=O)[C@@H](N)C(C)C)[C@@H](C)CC)C(=O)N[C@H](C(=O)N[C@@H](CO)C(=O)N[C@@H](CCCN=C(N)N)C(=O)N[C@@H](CC(=O)O)C(=O)N[C@H](C(=O)N[C@H](C(=O)O)[C@@H](C)O)[C@@H](C)O)[C@@H](C)O` [VIDKAKMESLGITSRDTT], the MIC in experiment [6] came to 7.94 µM (≈ 15.6 µg/mL); in experiment [2] it was 15.9 µM (≈ 31.2 µg/mL); in [7] it was 7.94 µM (≈ 15.6 µg/mL); in experiment [8], 15.9 µM (≈ 31.2 µg/mL).
`CC[C@H](C)[C@H](NC(=O)[C@@H](NC(=O)[C@@H]1CCCN1C(=O)[C@H](CC(C)C)NC(=O)[C@@H](N)Cc1ccccc1)C(C)C)C(=O)N[C@@H](C)C(=O)NCC(=O)N[C@@H](CC(C)C)C(=O)N[C@@H](CC(C)C)C(=O)N[C@@H](CO)C(=O)N[C@@H](CCCCN)C(=O)N[C@@H](CC(C)C)C(=O)N[C@@H](Cc1ccccc1)C(N)=O` [FLPVIAGLLSKLF]: the minimum inhibitory concentration (MIC) in experiment [11] and in experiment [4] was 8 µM (≈ 11.3 µg/mL) throughout.
Turning to `CC[C@H](C)[C@H](NC(=O)[C@H](CCCCN)NC(=O)CNC(=O)[C@H](Cc1ccccc1)NC(=O)[C@H](CC(C)C)NC(=O)CN)C(=O)N[C@@H](CC(C)C)C(=O)NCC(=O)N[C@H](C(=O)NCC(=O)N[C@@H](CCCCN)C(=O)N[C@@H](CCCCN)C(=O)N[C@H](C(=O)N[C@@H](CC(C)C)C(=O)N[C@H]1CSSC[C@@H](C(=O)O)NC(=O)[C@H](CCSC)NC(=O)CNC(=O)[C@H](CO)NC(=O)[C@H](CC(C)C)NC(=O)CNC1=O)C(C)C)C(C)C` [GLFGKILGVGKKVLCGLSGMC], the MIC in experiment [3] was no less than 50 µM; in experiment [2], 3 µM (≈ 6.24 µg/mL); in experiment [4], 12.5 µM (≈ 26 µg/mL).
The like results for `CC[C@H](C)[C@H](NC(=O)[C@H](CCCCN)NC(=O)[C@H](CC(=O)O)NC(=O)[C@H](CC(C)C)NC(=O)[C@H](C)NC(=O)[C@H](CO)NC(=O)[C@H](C)NC(=O)[C@H](CC(C)C)NC(=O)[C@H](CC(C)C)NC(=O)[C@H](CC(N)=O)NC(=O)[C@H](CCCCN)NC(=O)[C@H](C)NC(=O)[C@H](C)NC(=O)CNC(=O)[C@H](CCCCN)NC(=O)[C@H](Cc1ccccc1)NC(=O)[C@@H](NC(=O)[C@H](CC(=O)O)NC(=O)[C@H](CCSC)NC(=O)[C@H](CC(C)C)NC(=O)CN)C(C)C)C(=O)N[C@@H](CCCN=C(N)N)C(=O)N[C@H]1CSSC[C@@H](C(=O)O)NC(=O)[C@H](CCCCN)NC(=O)[C@H]([C@@H](C)O)NC(=O)[C@H](C(C)C)NC(=O)[C@H](CCCCN)NC1=O` [GLMDVFKGAAKNLLASALDKIRCKVTKC] were, in that order, no less than 100 µM, 13 µM (≈ 38.9 µg/mL) and no less than 100 µM.
On to `CC[C@H](C)[C@@H]1NC(=O)[C@H](C)NC(=O)[C@@H](NC(=O)[C@H](Cc2ccccc2)NC(=O)[C@@H](NC(=O)[C@H](CCCCN)NC(=O)[C@H](CO)NC(=O)[C@H](Cc2ccccc2)NC(=O)[C@@H](NC(=O)[C@H](CCCCN)NC(=O)[C@H](C)NC(=O)[C@H](C)NC(=O)[C@@H](NC(=O)[C@H](CO)NC(=O)[C@H](C)NC(=O)[C@@H](NC(=O)[C@@H](NC(=O)[C@@H]2CCCN2C(=O)[C@H](CC(C)C)NC(=O)[C@@H](N)Cc2ccccc2)[C@@H](C)CC)[C@@H](C)CC)C(C)C)C(C)C)[C@@H](C)CC)CSSC[C@@H](C(=O)O)NC(=O)[C@H](CCCCN)NC(=O)[C@H](CCCCN)NC(=O)[C@H](CO)NC1=O` [FLPIIASVAAKVFSKIFCAISKKC], for which the MIC is 7 µM (≈ 18.1 µg/mL) in [3], 5 µM (≈ 12.9 µg/mL) in experiment [2] and 7 µM (≈ 18.1 µg/mL) in [4].
For the molecule `CC[C@H](C)[C@H](NC(=O)[C@H](C)NC(=O)[C@H](CCC(=O)O)NC(=O)[C@H](Cc1cnc[nH]1)NC(=O)[C@H](Cc1ccccc1)NC(=O)CNC(=O)[C@H](CCC(N)=O)NC(=O)[C@H](Cc1ccccc1)NC(=O)[C@@H](NC(=O)[C@H](CCCCN)NC(=O)[C@H](CCCCN)NC(=O)[C@H](CC(C)C)NC(=O)[C@H](C)NC(=O)[C@H](CC(N)=O)NC(=O)[C@H](CC(C)C)NC(=O)CN)C(C)C)C(=O)N[C@@H](CCCCN)C(=O)N[C@@H](CC(C)C)C(=O)N[C@H](C(=O)N[C@@H](CC(N)=O)C(=O)N[C@@H](CC(N)=O)C(=O)N[C@@H](Cc1cnc[nH]1)C(=O)N[C@H](C(=O)N[C@@H](CCC(N)=O)C(=O)O)C(C)C)[C@@H](C)CC` [GLNALKKVFQGFHEAIKLINNHVQ], the results for the minimum inhibitory concentration (MIC) in experiment [2] and in experiment [4] were greater than 80 µM and no less than 160 µM, respectively.
As to `CC[C@H](C)[C@H](NC(=O)CN)C(=O)N[C@H](C(=O)N[C@@H](CCCCN)C(=O)NCC(=O)N[C@H](C(=O)N[C@H](C(=O)N[C@@H](CCCCN)C(=O)N[C@@H](CCCCN)C(=O)N[C@H](C(=O)N[C@H](C(=O)N[C@@H](CCCCN)C(N)=O)[C@@H](C)CC)[C@@H](C)CC)[C@@H](C)CC)[C@@H](C)CC)[C@@H](C)CC` [GIIKGIIKKIIK], the MIC in experiment [1] was found to be 8 µM (≈ 10.6 µg/mL); in experiment [2], 64 µM (≈ 84.7 µg/mL).
